Measurements taken from patent US20110021776A1, “COMPOSITIONS FOR THE TREATMENT OF CENTRAL NERVOUS SYSTEM DISEASES AND DISORDERS” (MediProPharma, Inc., priority 2006, published 2011).
Where “and” joins values, the source holds several entries; their conditions need not be identical. Equal values may be shown once. Read-outs that look alike come from different tables or passages of the source. Marks after values point to notes of the source that are not given here.

What was measured:
[1] = Brain/plasma pharmacokinetics, single i.v. bolus in rats; format: in vivo, Sprague-Dawley rats; settings: 10 mg/kg bolus i.v., normal rats; for Kp / concentration at 0.25 h / concentration at 1 h / concentration at 4 h: intravenous; for Kp: read-out: BAUC/PAUC Ratio; for AUC(0-t): read-out: AUC0-t of Plasma
Procedure: (§1) (IV) Pharmacokinetic Studies
(§2) The pharmacokinetic studies in Sprague-Dawley rats were performed using the protocols developed by WuXi AppTec (St. Paul, Minn., USA, and Shanghai, China. http://www.apptecls.com/).
The brain exposure of the compound of Example 1 is about […] higher than that required for inhibition of DYRK1A, with a Kd and IC50 at about 1 uM, or 280 ng/mL.

human DYRK1A [2] = target: T1, human DYRK1A (Homo sapiens, UniProt Q13627); test: Human DYRK1A kinase competitive binding assay (Ambit Biosciences); parameters: Ambit Biosciences (San Diego, Calif., USA), contract assay provider
Procedure: (I) Human DYRK1A Kinase Binding Assay and Binding Constant Measurements. Human DYRK1A kinase profiles in a competitive binding assay were performed by Ambit Biosciences (San Diego, Calif., USA). Activity was recorded via a competition binding assay of human DYRK1A kinase that was fused to a proprietary tag. Measurements of the amount of DYRK1A kinase bound to an immobilized, active-site directed ligand in the presence and absence of the test compound provided a percentage of DMSO control for binding of ligand. Activities between 1% and 10% were selected for Kd determination. Dendrogram representations were generated by an in-house visualization tool designated as PhyloChem. In certain embodiments, compounds have a low Kd value in the DYRK1A kinase binding assay. […] The human DYRK1A kinase binding assay has been used to test the compounds of the Examples disclosed.

[3] = Plasma pharmacokinetics, single dose in rats; format: in vivo, Sprague-Dawley rats; settings: normal rats; for MRT inf: read-out: MRT0-inf; for MRT last: read-out: MRT0-last; for Vd: read-out: Vdss
Procedure: as §1, §2

human DYRK1A [4] = target: T1, human DYRK1A; test: Human DYRK1A kinase functional assay (CEREP, LANCE detection); format: biochemical; parameters: CEREP (France), contract assay provider
Procedure: (II) Human DYRK1A Kinase Functional Assay and IC50 Measurements.
Compound profiling in a human DYRK1A kinase functional assay was performed by CEREP (France). The effects of compounds on the activity of human DYRK1A were evaluated and quantified by measuring the phosphorylation of the substrate Ulight-CFFKNIVTPRTPPPSQGK-amide (MBP) using a human recombinant enzyme and the LANCE® detection method, as described by Himpel et al, J. Biol. Chem., 275: 2431 (2000). The inhibitory activity of the compounds was expressed as a percent inhibition of the control kinase activity. Activities of the compounds at 50% or higher inhibition were selected for IC50 determination. Compounds were tested at 6 concentrations in duplicate for IC50 determination. The standard inhibitory reference compound was staurosporine, which was tested in each experiment at 8 concentrations to obtain an inhibition curve from which its IC50 value was calculated.
In certain embodiments, compounds have a low IC50 value in the DYRK1A kinase functional assay. […] The human DYRK1A kinase functional assay has been used to test the compounds of the Examples disclosed.

[5] = Sprague-Dawley, rat, iv, i.v. 2 mg/kg, plasma
[6] = Sprague-Dawley, rat, iv, i.v. 10 mg/kg, plasma
[7] = Sprague-Dawley, rat, plasma, iv, i.v. 2 mg/kg
[8] = Sprague-Dawley, rat, plasma, iv, i.v. 10 mg/kg
[9] = Sprague-Dawley, rat, po, p.o. 10 mg/kg, plasma

Cc1nc2c(c3c1[nH]c1ccccc13)C(=O)CC(C)(C)C2 [Example 1, 3,3,6-trimethyl-2,3,4,7-tetrahydroindolo[2,3-c]quinolin-1-one]
AUC0-t of Brain ([1]; t = 0.25 h): 2409 ng·h/g | AUC0-t of Brain ([1]; t = 1 h): 4727 ng·h/g | AUC0-t of Brain ([1]; t = 4 h): 5924 ng·h/g | AUC0-t of Brain ([1]; t = 8 h, the data is the value of AUC(inf)): 6020^b ng · h/g | AUC0-t of Brain ([1]; t = 24 h, the data is the value of AUC(inf)): 6020^b ng · h/g | Kp ([1]; Sprague-Dawley, rat, brain and plasma, 10 mg/kg, t = 0.25 h, BrainAUC(0-t)/PlasmaAUC(0-t)): 3.04 | Kp ([1]; Sprague-Dawley, rat, brain and plasma, 10 mg/kg, t = 1 h, BrainAUC(0-t)/PlasmaAUC(0-t)): 2.81 | Kp at 0.25 h ([1]; Sprague-Dawley, rat, brain and plasma, iv, 10 mg/kg, time 0.25 h, read-out: Brain/Plasma Ratio): 2.89 | Kp at 1 h ([1]; Sprague-Dawley, rat, brain and plasma, iv, 10 mg/kg, time 1 h, read-out: Brain/Plasma Ratio): 2.17 | Kp ([1]; Sprague-Dawley, rat, brain, 10 mg/kg, t = 4 h, BrainAUC(0-t)/PlasmaAUC(0-t)): 2.6 | Kp ([1]; Sprague-Dawley, rat, brain, 10 mg/kg, t = 8 h): 2.56 | Kp ([1]; Sprague-Dawley, rat, brain, 10 mg/kg, t = 24 h): 2.56 | concentration at 0.25 h ([1]; Sprague-Dawley, rat, brain, time 0.25 h, read-out: Mean concentration in brain): 6900 ng/mL | concentration at 1 h ([1]; Sprague-Dawley, rat, brain, time 1 h, read-out: Mean concentration in brain): 1030 ng/mL | concentration at 4 h ([1]; Sprague-Dawley, rat, brain, time 4 h, read-out: Mean concentration in brain): 99.4 ng/mL | Kp at 4 h ([1]; Sprague-Dawley, rat, brain, iv, 10 mg/kg, time 4 h, read-out: Brain/Plasma Ratio): 1.69 | concentration at 0.25 h ([1]; Sprague-Dawley, rat, plasma, time 0.25 h, read-out: Mean concentration in plasma): 2390 ng/mL | concentration at 1 h ([1]; Sprague-Dawley, rat, plasma, time 1 h, read-out: Mean concentration in plasma): 476 ng/mL | concentration at 4 h ([1]; Sprague-Dawley, rat, plasma, time 4 h, read-out: Mean concentration in plasma): 58.7 ng/mL | AUC(0-t) ([1]; Sprague-Dawley, rat, plasma, iv, 10 mg/kg, t = 0.25 h): 792 ng·h/mL | AUC(0-t) ([1]; Sprague-Dawley, rat, plasma, iv, 10 mg/kg, t = 1 h): 1680 ng·h/mL | AUC(0-t) ([1]; Sprague-Dawley, rat, plasma, iv, 10 mg/kg, t = 4 h): 2280 ng·h/mL | AUC(0-t) ([1]; Sprague-Dawley, rat, plasma, iv, 10 mg/kg, t = 8 h, the data is the value of AUC(inf)): 2350 ng·h/mL | AUC(0-t) ([1]; Sprague-Dawley, rat, plasma, iv, 10 mg/kg, t = 24 h, the data is the value of AUC(inf)): 2350 ng·h/mL | melting point: 178.3 to 180.7 °C | Kd (human DYRK1A [2]): < 10 µM and < 1 µM and ~1 µM | AUC(0-inf) [3, 5]: 316 ng·h/mL | AUC(0-t) [3, 5]: 312 ng·h/mL | half-life [3, 5]: 22.2 min | MRT inf [3, 5]: 21.9 min | MRT last [3, 5]: 19.9 min | AUC(0-inf) [3, 6]: 2350 ng·h/mL | AUC(0-t) [3, 6]: 2280 ng·h/mL | half-life [3, 6]: 45.9 min | MRT inf [3, 6]: 53.6 min | MRT last [3, 6]: 46.4 min | clearance [3, 7]: 106 mL/min/kg | Vd [3, 7]: 2.31 L/kg | clearance [3, 8]: 71.1 mL/min/kg | Vd [3, 8]: 3.81 L/kg | bioavailability ([3]; Sprague-Dawley, rat, plasma, po, p.o. 10 mg/kg, calculated using AUC0-inf, read-out: F (absolute oral bioavailability)): 34% | AUC(0-inf) [3, 9]: 544 ng·h/mL | AUC(0-t) [3, 9]: 541 ng·h/mL | Cmax [3, 9]: 1860 ng/mL | Tmax [3, 9]: 15 min | half-life [3, 9]: 49.3 min | MRT inf [3, 9]: 39.3 min | MRT last [3, 9]: 36.6 min | AUCExtra ([3]; i.v. 2 mg/kg, plasma): 1.49% | Co ([3]; i.v. 2 mg/kg, plasma): 1665 ng/mL | CL0-last ([3]; i.v. 10 mg/kg): 73.1 mL/min/kg | Vdss0-last ([3]; i.v. 10 mg/kg): 3.39 L/kg | Co ([3]; i.v. 10 mg/kg, plasma): 4100 ng/mL | AUCExtra ([3]; p.o. 10 mg/kg, plasma): 0.672% | IC50 (human DYRK1A [4]): < 2 µM and ~1 µM

Cc1nc2c(c3c1[nH]c1cccc(F)c13)C(=O)CC(C)(C)C2 [Example 2, 11-fluoro-3,3,6-trimethyl-2,3,4,7-tetrahydroindolo[2,3-c]quinolin-1-one]
Kd (human DYRK1A [2]): < 1 µM | IC50 (human DYRK1A [4]): < 5 µM

Cc1nc2c(c3c1[nH]c1ccc(F)cc13)C(=O)CC(C)(C)C2 [Example 4, 10-fluoro-3,3,6-trimethyl-2,3,4,7-tetrahydroindolo[2,3-c]quinolin-1-one]
Kd (human DYRK1A [2]): < 1 µM | IC50 (human DYRK1A [4]): < 2 µM

COc1ccc2[nH]c3c(C)nc4c(c3c2c1)C(=O)CC(C)(C)C4 [Example 6, 10-methoxy-3,3,6-trimethyl-2,3,4,7-tetrahydroindolo[2,3-c]quinolin-1-one]
Kd (human DYRK1A [2]): < 5 µM

Cc1nc2c(c3c1[nH]c1ccccc13)C(=O)CC(C)C2 (centres unmarked) [Example 8, 3,6-dimethyl-2,3,4,7-tetrahydroindolo[2,3-c]quinolin-1-one]
IC50 (human DYRK1A [4]): < 5 µM

CCc1nc2c(c3c1[nH]c1ccccc13)C(=O)CC(C)(C)C2 [Example 10, 6-ethyl-3,3-dimethyl-2,3,4,7-tetrahydro-indolo[2,3-c]quinolin-1-one]
IC50 (human DYRK1A [4]): < 5 µM

CC1(C)CC(=O)c2c(ncc3[nH]c4ccccc4c23)C1 [Example 11, 3,3-dimethyl-2,3,4,7-tetrahydroindolo[2,3-c]quinolin-1-one]
IC50 (human DYRK1A [4]): < 5 µM

Cc1nc2c(c3c1[nH]c1ccccc13)C(=O)CC1(CCCCC1)C2 [Example 12, 6-methyl-3′H-spirocyclohexane-2,3,4,7-tetrahydroindolo[2,3-c]quinolin-1-one]
IC50 (human DYRK1A [4]): < 10 µM

Cc1nc2c(c3c1[nH]c1ccc(Cl)cc13)C(=O)CC(C)(C)C2 [Example 13, 10-chloro-3,3,6-trimethyl-2,3,4,7-tetrahydroindolo[2,3-c]quinolin-1-one]
IC50 (human DYRK1A [4]): < 5 µM

COc1ccc2[nH]c3cnc4c(c3c2c1)C(=O)CC(C)(C)C4 [Example 14, 10-methoxy-3,3-dimethyl-2,3,4,7-tetrahydroindolo[2,3-c]quinolin-1-one]
IC50 (human DYRK1A [4]): < 10 µM

CCc1nc2c(c3c1[nH]c1cccc(F)c13)C(=O)CC(C)(C)C2 [Example 15, 11-fluoro-6-ethyl-3,3,-dimethyl-2,3,4,7-tetrahydroindolo[2,3-c]quinolin-1-one]
IC50 (human DYRK1A [4]): < 5 µM

CCc1nc2c(c3c1[nH]c1ccc(F)cc13)C(=O)CC(C)(C)C2 [Example 16, 10-fluoro-6-ethyl-3,3,-dimethyl-2,3,4,7-tetrahydroindolo[2,3-c]quinolin-1-one]
IC50 (human DYRK1A [4]): < 2 µM
